From US10473666B2, “Dye compounds” (SFC CO., LTD., priority 2015, dated 2019)

Columns and labels:
[1] = Characterization as pH probes: fluorescence intensity versus pH; format: physicochemical
Description: In addition, the absorption and fluorescence wavelengths of the compound of Formula 97 well match currently available laser lines (488 nm, 532 nm, and 550 nm).
That is, the compound of Formula 111 as a pH probe emitted strong fluorescence at pH 2-6 and the compound of Formula 97 as a pH probe emitted strong fluorescence at pH 8-12.

[2] = system: mitochondria, HeLa A431 cells; assay: Selectivity for mitochondria: co-localization with MitoTracker Green FM in HeLa A431 cells; format: cell-based; settings: dye 0.5 μM
Protocol: The specific selectivity of the compound of Formula 97 for mitochondria was investigated. To this end, HeLa A431 cells were co-localized with the compound of Formula 97 and a commercially available mitochondrial marker (MTG, 0.2 μM MitoTracker Green FM for mitochondria).
OPM images were acquired at 571-650 nm (Formula 97, λex=552 nm) and 498-540 nm (MTG, λex=488 nm) and are shown in FIGS. 6a and 6b, respectively. FIG. 6c is a merged image of FIGS. 6a and 6b. The Pearson's co-localization coefficient (A) was calculated using the LAS AF software. [MTG]=0.2μM for 30 min incubation,λex=488 nm [Formula 97]=0.5μM for 30 min incubation,λex=552 nm

[3] = Absorption spectra, emission spectra, molar extinction coefficients and quantum yields of the dye compounds; format: physicochemical; settings: Table 6
[4] = Photophysical properties incl. two-photon cross-sections (femtosecond fluorescence measurement technique); format: physicochemical
Protocol: All measurements were performed in DMSO, ethanol, and PBS buffer. Two-photon cross-sections (δ) were measured using a femtosecond (fs) fluorescence measurement technique.

## CC1(C)C2=C3C=C4C=CC(=O)C=C4OC3CCN2c2ccccc21 (stereo not drawn) [Formula 97]
[1]
  pH at which the pH probe emitted strong fluorescence: 8-12 pH
[1]; pH 1-6
  fluorescence intensity under acidic conditions: decreased
[1]; pH 9-12
  fluorescence intensity under basic conditions: increased
[2]
  staining selectivity for mitochondria: mitochondria were predominantly stained
[2]; MTG 0.2 μM, 30 min incubation, LAS AF software
  degree of overlapping (A), Pearson's co-localization coefficient with Mitotracker Green FM: 0.74
[3]; solvent DMSO
  Quantum yield: 0.94
  ε (molar extinction coefficient): 35,000 M^−1cm^−1
  λabs: 551 nm
  λem: 568 nm
[3]; solvent EtOH
  Quantum yield: 0.90
  ε (molar extinction coefficient): 47,000 M^−1cm^−1
  λabs: 555 nm
  λem: 567 nm
[3]; solvent PBS
  Quantum yield: 0.63
  ε (molar extinction coefficient): 14,000 M^−1cm^−1
  λabs: 541 nm
  λem: 565 nm
[4]; Buffer (PBS buffer)
  d: Peak two-photon cross-section: 35 10^−50 cm^4s per photon (GM)
  dΦ: Two-photon action cross-section: 22 GM
  Φ: Fluorescence quantum yield: 0.63
  λ^(2)max^abs: Maximum wavelength in two-photon absorption spectrum: 920 nm
  λmax^fl: Maximum wavelength in single-photon emission spectrum: 565 nm
[4]; Buffer (PBS buffer), in M-1cm-1
  eΦ: Molar extinction coefficient × fluorescence quantum yield: 8820
[4]; DMSO
  Φ: Fluorescence quantum yield: 0.94
  λmax^fl: Maximum wavelength in single-photon emission spectrum: 567 nm
[4]; EtOH
  dΦ: Two-photon action cross-section: 14 GM
  λ^(2)max^abs: Maximum wavelength in two-photon absorption spectrum: 720 nm
